Laboratory results as given in patent publication US20230225321A1, “ARTHROPOD REPELLENTS OBTAINED BY CHEMICALLY CONVERTING LACTIC ACID, LACTATES OR OTHER LACTIC ACID DERIVATIVES” (UNIVERSIDADE FEDERAL DO PARANA, priority 2020, published 2023).

Tests used:
[1] = tested on: mosquitoes; settings: cited from earlier work
[2] = tested on: female A. aegypti mosquitoes; assay: Repellency test, treated hand in cage of mosquitoes, time to first bite; assay type: in vivo; settings: for Repellency: repellency time until first bite, solutions of 15 to 20% in ethanol applied to hand, cage with 20 female A. aegypti
Description: Repellency tests can be carried out in the laboratory, at a temperature of 20° C.±2° C. and a relative humidity of 50 to 60%. Temperature and relative humidity data should be monitored and recorded using a digital thermohygrometer during the experiments.
To perform the tests, there were used wooden cages with screens on the sides and glass on the upper face measuring 30 cm×30 cm×30 cm containing 20 female A. aegypti mosquitoes, all mated with no previous blood meal. The tests must be carried out during the daytime, respecting the preference for the mosquito's hematophagy activity.
For the tests, one of the hands of the analyzer must be sanitized with neutral soap and then the upper, lower, lateral face and the region between the fingers must be treated with repellent solutions in ethanol, in order for the compounds to have their repellency activities evaluated. […]
When the first bite occurs, the experiment is interrupted, and the time is recorded by a digital stopwatch.

Row | Structure (SMILES) | Repellency [2] [h] | further results
1 | CCN(CC)C(=O)c1cccc(C)c1 [DEET, N,N-diethyl-3-methylbenzamide] | – | long-lasting effect (duration) ([1]; concentration of 20% to 30% of the compound): more than 6 hours
2 | CCCCN(CCC(=O)OCC)C(C)=O [IR 3535, ethyl butylacetylaminopropionate] | – | effectiveness ([1]; used in a concentration above 10%): slightly lower compared to DEET
3 | CCC(C)OC(=O)N1CCCCC1CCO (centres unmarked) [Icaridin] | – | protection (duration) ([1]; concentration of 20%): up to 10 hours; minimum concentration for repellent action ([1]; in vivo): 5%
4 | CCCC(=O)OC(C)C(=O)N1CCCC1 (centres unmarked) [Input 2] | >10 | –
5 | CCCC(=O)O[C@@H](C)C(=O)N(CC)CC [Input 3] | 2 | –
6 | CCN(CC)C(=O)[C@H](C)OC(C)=O [Input 4] | 5 | –
7 | CCCC(=O)O[C@@H](C)C(=O)N1CCCCC1 [Input 5] | >10 | –
8 | C[C@H](O)C(=O)N1CCCC1 [Input 7] | 0 | –
9 | CCCC(=O)O[C@@H](C)C(=O)N1CCCC1 [Input 8] | >12 | result in terms of repellency time (comparison within Table 1) ([2]; solutions of 15 to 20% in ethanol): best result in terms of repellency time
